From patent US20250073230A1, “USE OF PLINABULIN IN COMBINATION WITH IMMUNE CHECKPOINT INHIBITORS” (BeyondSpring Pharmaceuticals, Inc., priority 2015, published 2025)
Entries after “also recorded” stand apart in the source; their conditions may differ.

Assays:
SP37A3 DCs [1] = assay: DC viability (SytoxGreen staining); type: cell-based, mouse; conditions: FIG. 1B, 0.001-10 μM, 20 h
SP37A3 DCs [2] = assay: Expression of DC maturation markers CD40, CD80, CD86 and MHCII by flow cytometry; type: cell-based, mouse; conditions: 0.001-10 μM, 20 h
Description: Cell lines: The immature mouse DC cell line SP37A3 (provided by Merck KGaA) was cultured in Iscove's Modified Dulbecco's Medium (IMDM; Sigma) supplemented with 10% heat-inactivated and endotoxin-tested FBS (PAA), sodium pyruvate (Gibco), penicillin/streptomycin L-glutamine mix (Gibco), Eagle's Minimum Essential Medium (MEM) nonessential amino acids (Sigma), Ciproxin (Bayer), and 0.05 mmol/L 2-mercaptoethanol (Gibco). IMDM complete medium was supplemented with 20 ng/mL recombinant mouse GM-CSF and 20 ng/mL recombinant mouse M-CSF (both Peprotech). The murine tumor cell lines EG7 and 3LL-OVA were obtained from ATCC or provided by Douglas T. Fearon (Cancer Research UK Cambridge Institute, Li Ka Shing Centre, University of Cambridge, Cambridge, UK), respectively. All cell lines were tested and validated to be Mycoplasma-free. Expression of OVA in EG7 and 3LL-OVA, and of Thy1.1 in RMAThy1.1, respectively, was confirmed; no genomic authentication was performed.
SP37A3 DCs (murine DC line, Merck) were plated (8×10^4 cells/well, 96-well flat bottom, tissue-culture treated) in 180 uL IMDM complete medium [IMDM medium (Sigma) supplemented with 10% heat-inactivated and endotoxin-tested FBS (PAA), sodium pyruvate (Gibco), penicillin/streptomycin L-glutamine mix (Gibco), MEM nonessential amino acids (Sigma) and 0.05 mM 2-mercaptoethanol (Gibco)]. IMDM complete medium was supplemented with 20 ng/mL recombinant mouse GM-CSF. DCs were allowed to adhere for two hours before Plinabulin, medium, or LPS as controls were added 10× concentrated in 20 uL. DCs were incubated with Plinabulin in various concentrations (0.001 μM, 0.01 μM, 0.1 μM, 1 μM, 10 μM), medium, and LPS respectively for 20 h. Supernatants of these cultures were collected and used for detection of cytokine production by ELISA (kits available from BD) and the cells were stained with the LD-IR viability dye (Invitrogen) as well as with fluorochrom-labeled monoclonal antibodies against CD80, CD86, CD40 and MHCII for flow cytometric analysis. Cells were analyzed using a BD Fortessa Cytometer equipped with DIVA software. Mean fluorescence intensity (MFI) of the DC maturation markers CD40, CD80, CD86 and MHCII in live cells was normalized to the MFI of those markers detected in untreated (medium) DCs.
Two other cancer drugs, Paclitaxel and Etoposide, were also tested to compare their effects on DC maturation with Plinabulin. […] Cells were analyzed using a BD Fortessa Cytometer equipped with DIVA software. Mean fluorescence intensity (MFI) of the DC maturation markers CD40 (FIG. 2A), CD80 (FIG. 2B), CD86 (FIG. 2C) and MHCII (FIG. 2D) in live cells was normalized to the MFI of those markers detected in untreated (medium) DCs. […]

MC-38 tumor cells [3] = assay: FACS analysis of the tumors at necropsy, MC-38 CRC tumor model (Example 7); type: in vivo, mice
Description: The combined treatment with Plinabulin and a PD-1 checkpoint inhibitor in combination with a CTLA-4 checkpoint inhibitor was tested in comparison with the treatment with Plinabulin alone, the treatment with PD-1 antibody alone, or the treatment with PD-1 antibody in combination with CTLA-4 antibody. The tests were performed using seven to ten-week old mice that were injected subcutaneously with MC-38 tumor cells. Six testing groups were prepared, and each group included 10 mice.
Group 1 was administered with IgG2a and plinabulin vehicle; Group 2 was administered with Plinabulin dissolved in diluent at a concentration of 7.5 mg/kg; Group 3 was administered with PD-1 antibody; Group 4 was administered with a Plinabulin/PD-1 antibody combined treatment; Group 5 was administered combined PD-1/CTLA-4 antibodies; and Group 6 was administered combined PD-1 antibody/CTLA-4 antibody/Plinabulin treatment. For the Plinabulin/PD-1 antibody combined treatment (Group 4) and the Plinabulin/PD-1/CTLA-4 antibody treatment (Group 6), the mice were administered twice per week (Day 1 and Day 4 of each week) with Plinabulin (7.5 mg/kg) that was dissolved in diluent, followed by administering antibody (ies) one hour after each Plinabulin administration. For the Plinabulin only treatment (Group 2) or the antibody (ies) only treatment (Groups 3 and 5), mice were administered Plinabulin (7.5 mg/kg dissolved in diluent) or antibody (ies) alone twice per week (Day 1 and Day 4 of each week).
Each treatment started at tumor size of around 125 mm^3 and continued until tumor size of 3000 mm^3 was reached. […] To determine the efficacy of each treatment, the following data were collected: mortality rate prior to tumor size reaching 3000 mm^3; the body weight of the mice assessed twice weekly both prior to treatments; the rate of tumor growth as determined by the tumor size measurement (twice every week); the tumor growth index; overall survival rate; the tumor weight at necropsy; and the time required to increase tumor size 10 fold. […]

MC-38 tumor cells [4] = assay: MC-38 tumor model, Plinabulin with PD-1 antibody and CTLA-4 antibody (Example 7); type: in vivo, mice; conditions: Example 7, FIG. 4B; six treatment groups
Description: The combined treatment with Plinabulin and a PD-1 checkpoint inhibitor in combination with a CTLA-4 checkpoint inhibitor was tested in comparison with the treatment with Plinabulin alone, the treatment with PD-1 antibody alone, or the treatment with PD-1 antibody in combination with CTLA-4 antibody. The tests were performed using seven to ten-week old mice that were injected subcutaneously with MC-38 tumor cells. Six testing groups were prepared, and each group included 10 mice. Group 1 was administered with IgG2a and plinabulin vehicle; Group 2 was administered with Plinabulin dissolved in diluent at a concentration of 7.5 mg/kg; Group 3 was administered with PD-1 antibody; Group 4 was administered with a Plinabulin/PD-1 antibody combined treatment; Group 5 was administered combined PD-1/CTLA-4 antibodies; and Group 6 was administered combined PD-1 antibody/CTLA-4 antibody/Plinabulin treatment. For the Plinabulin/PD-1 antibody combined treatment (Group 4) and the Plinabulin/PD-1/CTLA-4 antibody treatment (Group 6), the mice were administered twice per week (Day 1 and Day 4 of each week) with Plinabulin (7.5 mg/kg) that was dissolved in diluent, followed by administering antibody (ies) one hour after each Plinabulin administration. […] At necropsy the tissues were weighed and subjected to FACS analysis.

SP37A3 DCs [5] = assay: Production of pro-inflammatory cytokines by DCs (ELISA of supernatants); type: cell-based, mouse; conditions: Example 2, FIG. 3A-3C, 20 h
Description: Two other cancer drugs, Paclitaxel and Etoposide, were also tested to compare their effects on DC maturation with Plinabulin. SP37A3 DCs (murine DC line, Merck) were plated (8×10^4 cells/well, 96-well flat bottom, tissue-culture treated) in 180 uL IMDM complete medium [IMDM medium (Sigma) supplemented with 10% heat-inactivated and endotoxin-tested FBS (PAA), sodium pyruvate (Gibco), penicillin/streptomycin L-glutamine mix (Gibco), MEM nonessential amino acids (Sigma) and 0.05 mM 2-mercaptoethanol (Gibco)]. IMDM complete medium was supplemented with 20 ng/mL recombinant mouse GM-CSF. DCs were allowed to adhere for two hours before Plinabulin, Paclitaxel, Etoposide, medium, or LPS (positive control) were added 10× concentrated in 20 uL. […] Cells were analyzed using a BD Fortessa Cytometer equipped with DIVA software. Mean fluorescence intensity (MFI) of the DC maturation markers CD40 (FIG. 2A), CD80 (FIG. 2B), CD86 (FIG. 2C) and MHCII (FIG. 2D) in live cells was normalized to the MFI of those markers detected in untreated (medium) DCs. The production of the pro-inflammatory cytokines IL-1β(FIG. 3A), IL-6 (FIG. 3B), and IL-12p40 (FIG. 3C) were also determined by ELISA.

Compound: CC(C)(C)c1[nH]cnc1/C=c1\[nH]c(=O)/c(=C/c2ccccc2)[nH]c1=O [Plinabulin, (3Z,6Z)-3-Benzylidene-6-{[5-(2-methyl-2-propanyl)-1H-imidazol-4-yl]methylene}-2,5-piperazinedione]
- DC viability (SP37A3 DCs [1]): did not change significantly
- expression of DC maturation markers CD40, CD80, CD86 and MHCII (MFI normalized to untreated DCs) (SP37A3 DCs [2]; Example 1, FIG. 1A): significantly increased expression of all four DC maturation markers
- expression of DC maturation markers CD40, CD80, MHCII and CD86 compared with Paclitaxel and Etoposide (SP37A3 DCs [2]; Example 2, FIG. 2A-2D): much greater expression of all four DC maturation markers
- expression of DC maturation markers compared with positive control LPS (SP37A3 DCs [2]; Example 2, FIG. 2A-2D): significantly increased expression of all four markers
- induction of DC maturation, rank among Plinabulin, Paclitaxel and Etoposide (SP37A3 DCs [2]; Example 2): most potent inducer of DC maturation among all three drugs
- percentage of Treg cells in tumor (MC-38 tumor cells [3]; FIG. 5A, vs comparator group without plinabulin): reduction in % Treg cells; also recorded: decreased percentage of Regulatory T cells
- ratio of CD8+ cells to Treg cells in tumor (MC-38 tumor cells [3]; FIG. 5B): increase in the ratio of CD8+/Treg cells
- percentage of macrophages in CD45+ lymphocytes in tumor (MC-38 tumor cells [3]; FIG. 5C, vs respective comparator groups): decreased percentage of macrophage stained cells
- mean tumor weight at necropsy (MC-38 tumor cells [4]): decreased tumor weight at necropsy
- production of IL1b, IL6 and IL12 (IL-12p40) compared with Paclitaxel, Etoposide and LPS (SP37A3 DCs [5]): increased production of IL1b, IL6, and IL12
